Reference: patent US12636283B2, “Inhibition of PRC2 subunits to treat eye disorders” (FONDATION ASILE DES AVEUGLES, priority 2018, dated 2026)
Entries after “also recorded” stand apart in the source; their conditions may differ.

What was measured:
EZH2 = biological target: T1, EZH2 (Mus musculus, UniProt Q61188); experiment: UNC1999 treatment of mouse embryonic fibroblasts, H3K27me3 immunostaining and western blot; format: cell-based
T1 construct: endogenous in cells; host or cells: Mouse Embryonic Fibroblasts (MEF)
Experimental: Mouse Embryonic Fibroblasts (MEF) were maintained in culture in Dulbecco's Modified Eagle's Media (DMEM), 10% fetal bovine serum (FBS) with penicillin and streptomycin, at 37° C., 5% CO2. The day before treatment, the cells were trypsinized and seeded at a density of 50,000 cells on poly-ornithine coated coverslips in 24 well plates. The next day, the media was discarded and fresh media containing various doses of the UNC1999 inhibitor dissolved in dimethyl sulfoxide (DMSO), ranging from 1 μM to 50 μM was added in triplicates, then incubated back at 37° C. for 48H. Control cells received the respective dimethyl sulfoxide DMSO used with the UNC1999. The coverslips were washed 3 times with pre-warmed phosphate buffer saline (PBS) 1× at room temperature (RT). The cells were fixed with 4% paraformaldehyde (PFA) for 12 min at RT. After two more washes in PBS, the cells were immediately proceeded for immunostaining. For western blot analysis, 200,000 cells were seeded in triplicates in 6 wells plates and treated as above.
Immunohistochemistry was performed on treated and non-treated slides. The sections were washed 3 times with cooled PBS 1× before being permeabilized with Triton X-100 for 20 min to further allow optimal antibodies-antigens interactions everywhere in the tissue and cells. The sections were blocked for 1 h with buffer containing 3% BSA (w/v), 5% NGS (v/v) in PBS 1× containing 0.3% Triton X-100. Appropriate antibodies dilutions (see list of antibodies with their respective applications in Table 2) were prepared in blocking solution and sufficient amount were laid and transferred to 4° C. over-night. The next day, the antibodies solutions were shed-off and the remaining non-interacting probes were washed off 3 times with PBS 1×. Interacting probes were then detected by applying a solution of appropriate conjugated secondary antibodies Alexa Fluor 488 or Alexa fluor 633 diluted in PBS 1× 1 h at RT. Finally, the nuclei were counterstained with 4′,6-diamidino-2-phenylindole (DAPI) solution prepared in PBS. Alternatively, for difficult to retrieve antigens such as cGMP and CDK4, special conditions were applied: Successful detection of CDK4 requires signal amplification, either with TSA* fluorescein detection kit (PerkinElmer) or 3,3′-diaminobenzidine (DAB) revelation system (Dako) according to providers instructions. The cGMP detection was achieved by permeabilizing the membrane with soft detergent solution (0.1% Triton X-100) and using Tris buffer (TBS) throughout the incubation steps. All the preparations were mounted with Mowiol and measurements were taken using an Olympus BX60 fluorescence microscope or Zeiss confocal microscopy (LSM 510 3.2 software). […]

Rd1 mice = experiment: Intravitreal injection of UNC1999 in PN8 Rd1 mice, H3K27me3 and TUNEL staining of the ONL; format: in vivo, mouse
Experimental: The UNC1999 inhibitor was supplied as lyophilized powder from commercial source (#SML0778-5MG, SIGMA). The stock solution was prepared in 100% DMSO according to the manufacturer's instructions. Sufficient amount of DMSO was added to the vial to generate a 10 mM stock solution. For optimal injection procedure, we reviewed three different parameters prior to intermediate solution preparation. Firstly, considering the volume of the vitreous of young mice (post-natal day 8, PN08) which is approximately 5.3 μl; the maximum safe amount (1 μl) that could be injected (final volume 6.3 μl) and the calculated effective dose of […] obtained from increasing doses along with cell culture experiments (see below). Therefore, the stock solution was then diluted in physiological buffer (0.9% NaCl) in order to make a 20 μM intermediate solution for subsequent experiments.
(§1) The compound was delivered by intravitreal injection into the eyeball of PN08 Rd1 littermates. The animals (08 in total) were first anesthetized intraperitoneally (ip) with a mixture of 20 mg/kg Ketamine+300 μg/Kg of Dorbene. After 30 min, the recovery was performed by an ip injection of 300 μg/kg of Alzane. When necessary, the future edge of the eyelid was forced to open and maintained with forceps. The injection needle filled with 20 μM UNC1999 solution was inserted carefully into the vitreous through the sclera. A single dose (1 μl) of the intermediate solution was delivered slowly, leading to a final concentration of 2.5-3 μM, with a corresponding DMSO concentration of 0.0317%. For each animal, one eye received the compound whereas the other eye was injected with the vehicle. The injected animals were kept warmed and benefited from closest inspection until they wake up from anesthesia. 400 μl of 5% glucose and paracetamol were administered subcutaneously and intraperitoneally respectively to help for recovery before transferred back to their normal habits. The mice were sacrificed 4 days post injection and the eyeball excised as described below. Before processing, the eyes were carefully inspected for any sign of cataracts and unexpected lesions. Similarly, a single dose of UNC1999 (solution of 36 μM) was administered by intravitreal injection to 2 months old Fam161a^−/− mice (slow degenerative process), with repeated injection every week. The animal was sacrificed 4 days after the fourth injection.
The animals were sacrificed by a 7 min exposure to CO2. The Histology was performed on enucleated eyes. Prior to cryosectioning, the eye globes were excised from the optic nerve and were perforated at the cornea level (a single tiny hole) with 25 G needle and transfer to 4% PFA (w/v) at RT. After 1 h incubation period, the eyes were washed in PBS 1× before being transferred in 30% sucrose over night at 4° C. The eyes were embedded in yazula and frozen at −20° C. and then 14 μm sections were performed with cryostat. The sections were collected on six serial slides for each eye. All quantifications were performed on the most central cryosections including (or surrounding) the optic nerve. Measurements of rows of nuclei were taken at the same geographic area for both dorsal and ventral sides of the retina in all sections and slides analyzed. The data were pooled as a mean for the dorsal or ventral zone of the retina
The frozen slides were warmed at RT, rehydrated and washed 3 times with PBS 1×. […]

Fam161a-/- mice = experiment: Repeated weekly intravitreal injection of UNC1999 in Fam161a-/- mice, photoreceptor rows and H3K27me3; format: in vivo, mouse; conditions: 2-month-old Fam161a-/- mice
Experimental: as §1
The animals were sacrificed by a 7 min exposure to CO2. […] All quantifications were performed on the most central cryosections including (or surrounding) the optic nerve. Measurements of rows of nuclei were taken at the same geographic area for both dorsal and ventral sides of the retina in all sections and slides analyzed. […]
Immunohistochemistry was performed on treated and non-treated slides. […] Interacting probes were then detected by applying a solution of appropriate conjugated secondary antibodies Alexa Fluor 488 or Alexa fluor 633 diluted in PBS 1× 1 h at RT. […]

C57/B16 healthy mice = experiment: ERG recording of retina function in healthy mice before and one week after intravitreal injection; format: in vivo, mouse
Experimental: To test whether the UNC1999 dose tested ([…]) has a toxic effect on retina function, the retina activity of control (injected with the vehicle, DMSO) and UNC1999 treated C57/B16 healthy mice was recorded by ERG before and one week after intravitreal injection (FIG. 12). In scotopic condition, the b-wave maximum amplitude baseline of the DMSO treated group was a bit higher than the UNC1999 group one before the injection.

[1] = mouse embryonic fibroblasts, FIG. 7B
[2] = Rd1 PN8, intravitreal, 2.5 μM final eye concentration, 4 days post injection, vs DMSO treated eye
[3] = Rd1 eyes injected at PN8, 2.5 μM final eye concentration, vs vehicle (DMSO)
[4] = intravitreal, weekly, four injections, solution of 36 μM

T1 sequence (Q61188 whole entry): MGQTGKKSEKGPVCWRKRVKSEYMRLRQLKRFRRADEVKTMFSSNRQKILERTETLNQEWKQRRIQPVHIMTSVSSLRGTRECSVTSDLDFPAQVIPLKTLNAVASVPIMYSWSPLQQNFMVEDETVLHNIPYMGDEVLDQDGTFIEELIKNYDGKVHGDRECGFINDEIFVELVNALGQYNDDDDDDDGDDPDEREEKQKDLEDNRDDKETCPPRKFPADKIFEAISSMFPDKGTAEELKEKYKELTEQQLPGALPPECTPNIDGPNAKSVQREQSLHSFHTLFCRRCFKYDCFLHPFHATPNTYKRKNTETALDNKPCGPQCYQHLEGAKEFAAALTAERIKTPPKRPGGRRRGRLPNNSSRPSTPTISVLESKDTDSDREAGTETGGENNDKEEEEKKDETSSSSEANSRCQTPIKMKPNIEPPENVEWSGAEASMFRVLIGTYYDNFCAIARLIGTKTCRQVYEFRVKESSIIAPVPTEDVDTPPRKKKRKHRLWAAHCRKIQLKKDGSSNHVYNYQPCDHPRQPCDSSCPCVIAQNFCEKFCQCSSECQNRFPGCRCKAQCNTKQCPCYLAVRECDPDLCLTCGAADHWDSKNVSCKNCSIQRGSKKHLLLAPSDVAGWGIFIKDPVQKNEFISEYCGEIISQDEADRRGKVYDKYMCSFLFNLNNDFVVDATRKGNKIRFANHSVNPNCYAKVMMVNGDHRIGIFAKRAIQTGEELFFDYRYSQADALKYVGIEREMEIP
T1 sequence (Q921E6 whole entry partner): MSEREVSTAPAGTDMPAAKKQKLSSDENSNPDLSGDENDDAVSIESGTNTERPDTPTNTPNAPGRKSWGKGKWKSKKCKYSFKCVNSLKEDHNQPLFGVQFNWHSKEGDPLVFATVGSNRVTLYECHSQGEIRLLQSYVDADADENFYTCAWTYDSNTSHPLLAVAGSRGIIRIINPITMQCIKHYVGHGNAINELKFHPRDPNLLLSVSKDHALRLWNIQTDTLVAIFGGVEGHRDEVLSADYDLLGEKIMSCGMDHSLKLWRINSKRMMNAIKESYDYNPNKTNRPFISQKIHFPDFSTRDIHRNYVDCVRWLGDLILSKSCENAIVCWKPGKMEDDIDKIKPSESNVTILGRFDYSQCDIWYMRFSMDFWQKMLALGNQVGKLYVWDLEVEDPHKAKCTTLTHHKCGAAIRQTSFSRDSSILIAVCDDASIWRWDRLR
T1 sequence (Q80U70 whole entry partner): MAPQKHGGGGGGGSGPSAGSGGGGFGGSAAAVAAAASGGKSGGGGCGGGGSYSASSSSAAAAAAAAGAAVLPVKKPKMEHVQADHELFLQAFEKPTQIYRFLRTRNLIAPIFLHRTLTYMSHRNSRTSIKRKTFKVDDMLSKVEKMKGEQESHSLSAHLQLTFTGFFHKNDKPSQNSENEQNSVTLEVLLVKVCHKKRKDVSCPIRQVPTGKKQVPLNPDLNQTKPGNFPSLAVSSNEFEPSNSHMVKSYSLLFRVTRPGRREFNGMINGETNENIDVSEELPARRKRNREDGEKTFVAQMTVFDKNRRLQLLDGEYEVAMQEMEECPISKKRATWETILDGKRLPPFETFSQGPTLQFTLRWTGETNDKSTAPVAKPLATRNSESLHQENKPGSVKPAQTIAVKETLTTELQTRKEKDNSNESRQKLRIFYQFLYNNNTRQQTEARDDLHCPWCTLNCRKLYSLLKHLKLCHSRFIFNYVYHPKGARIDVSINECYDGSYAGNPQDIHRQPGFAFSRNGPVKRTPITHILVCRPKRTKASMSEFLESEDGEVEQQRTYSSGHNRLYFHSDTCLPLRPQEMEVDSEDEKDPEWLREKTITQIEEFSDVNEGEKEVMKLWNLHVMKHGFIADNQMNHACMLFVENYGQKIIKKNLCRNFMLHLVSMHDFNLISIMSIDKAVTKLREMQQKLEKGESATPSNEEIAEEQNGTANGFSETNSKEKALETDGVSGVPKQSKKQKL
T1 sequence (Q60972 whole entry partner): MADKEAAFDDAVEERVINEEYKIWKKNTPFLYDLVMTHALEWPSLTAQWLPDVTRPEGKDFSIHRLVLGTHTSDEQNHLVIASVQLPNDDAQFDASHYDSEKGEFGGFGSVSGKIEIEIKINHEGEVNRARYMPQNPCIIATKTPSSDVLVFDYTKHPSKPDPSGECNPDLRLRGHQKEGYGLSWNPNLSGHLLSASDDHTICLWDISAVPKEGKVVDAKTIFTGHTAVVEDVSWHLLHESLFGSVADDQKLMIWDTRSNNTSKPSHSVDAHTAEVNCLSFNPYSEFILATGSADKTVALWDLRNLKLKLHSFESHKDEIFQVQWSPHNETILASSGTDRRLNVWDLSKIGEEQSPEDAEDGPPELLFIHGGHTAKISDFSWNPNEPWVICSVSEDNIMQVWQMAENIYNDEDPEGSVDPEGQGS

CCCc1cc(C)[nH]c(=O)c1CNC(=O)c1cc(-c2ccc(N3CCN(C(C)C)CC3)nc2)cc2c1cnn2C(C)C [UNC1999]
H3K27me3 mark by immunocytochemistry labelling (EZH2; [1]): robust decreased of the mark
levels of EZH2 (EZH2; [1]): slightly affected
calculated effective dose (EZH2; obtained from increasing doses along with cell culture experiments): 6 µM
block of endogenous levels of H3K27me3 (EZH2; proliferating mouse embryonic fibroblasts, 2.5 μM, compared to DMSO control): efficient to block the endogenous levels of H3K27me3
decline of hyper H3K27me3 signal in the ONL (Rd1 mice; [2]): 75%
decrease of number of TUNEL positive cells (Rd1 mice; [2]): 70%
H3K27me3 positive cells (in words) (Rd1 mice; [3]): marked reduction
TUNEL positive cells (in words) (Rd1 mice; [3]): marked reduction
retinal degeneration (Rd1 mice; Rd1 mouse): markedly delayed retinal degeneration
levels of H3K27me3 hyper trimethylation, injected vs non-injected side (Fam161a-/- mice; dorso-ventral axis, 4 days after the last injection): did not observe any statistical differences; also recorded: no changes were observed
number of photoreceptor rows in the dorsal compartment (Fam161a-/- mice; [4]): No significant difference
number of photoreceptor rows in the ventral ONL (Fam161a-/- mice; [4]): statistical significant preservation
ERG photopic response vs baseline (C57/B16 healthy mice; 3 cda/s.m^2 stimulation, one week after injection, both DMSO and UNC1999 treated animals): reduced response
ERG photopic flicker response, treated vs control group (C57/B16 healthy mice; 5, 10 and 15 Hz, one week after intravitreal injection): No differences between the control and the treated groups were observed
ERG flicker response vs baseline (C57/B16 healthy mice; 5 Hz, both treated groups (DMSO and UNC1999)): a reduction of the response occurred
ERG flicker response (C57/B16 healthy mice; 15 Hz, all groups): no differences were observed
ERG photopic maximum b-wave amplitude, treated vs vehicle group (C57/B16 healthy mice; healthy adult mice, one week after intravitreal injection): No differences between the two groups were noticed
ERG scotopic maximum b-wave amplitude (C57/B16 healthy mice; healthy adult mice, one week after intravitreal injection, vs DMSO group and baseline): no significant differences with the baseline; also recorded: No differences in retina activity
